Laboratory results as given in publication PMC6915683, “Characterization of Maltase and Sucrase Inhibitory Constituents from Rhodiola crenulata” (Foods, 2019).
“Also recorded” adds a separate entry of the source. Read-outs that look alike come from different tables or passages of the source.

Assays:
maltase [1] = target: T1, maltase (Saccharomyces cerevisiae, UniProt P53341); test: Maltase inhibition kinetics (Lineweaver–Burk and Dixon plots); format: biochemical; settings: for Ki’ maltase (uncompetitive inhibition constant): binding to maltase–maltose complex; for mode of inhibition toward maltase: Lineweaver–Burk / Dixon plots
T1 construct: purchased Sigma Chemical Co. (St. Louis, MO, USA)
Experimental: (§1) Maltase activity was characterized using the methods outlined by Adisakwattana et al. with slight modifications. Maltose and maltase derived from Saccharomyces cerevisiae (S. cerevisiae) were obtained from Sigma Chemical Co. (St. Louis, MO, USA). A reaction mixture was formulated from 30 μL of maltose (86.3 mM) with 20 μL of maltase (0.33 units/mL) and 50 μL of phosphate buffer (100 mM, pH 7.0). The mixture was incubated at 37 °C for 10 min and then at 100 °C for a further 10 min to stop the reaction. The glucose concentrations released by the reaction mixture were determined via the glucose oxidase method (glucose assay kit, Sigma Chemical Co., St. Louis, MO, USA) using a VersaMax microplate reader (Molecular Devices Corporation, Sunnyvale, CA, USA) at an absorbance wavelength of 540 nm.
Kinetics assays were conducted using substrates of various concentrations with and without inhibitors. Maltose was used as a substrate for maltase, where the initial velocity was expressed as the rate of absorbance at 540 nm per min. Sucrose was used as a substrate for sucrase, where the initial velocity was expressed as the rate of absorbance at 540 nm per 18 min. Dixon plot analysis was used to determine the competitive inhibition constant (Ki) and uncompetitive inhibition constant (Ki’). Ki was used as the equilibrium constant for the inhibition of binding to maltase and sucrase, whereas Ki’ was used as the equilibrium constant for the inhibition of binding to maltase–maltose and sucrase–sucrose complexes. The Ki and Ki’ values of the maltase inhibitors were derived from Dixon plots in accordance with the methods described by Cornish-Bowden.

α-glucosidase = tested on: α-glucosidase; parameters: method as in doi:10.1016/j.foodres.2014.01.029; settings: cited from earlier work; for Ki / Ki’ α-glucosidase: previous results
sucrase [2] = test: Sucrase inhibition kinetics (Lineweaver–Burk and Dixon plots); format: biochemical, Leuconostoc mesenteroides; settings: for Ki / Ki’ sucrase (uncompetitive inhibition constant): Dixon plot; for Ki / mode of inhibition toward sucrase: sucrose substrate; for Ki: binding to sucrase, read-out: Ki sucrase (competitive inhibition constant); for mode of inhibition toward sucrase: Lineweaver–Burk / Dixon plots; for Ki’ sucrase (uncompetitive inhibition constant): binding to sucrase–sucrose complex
Experimental: Estimates of sucrase activity were obtained using the method outlined by […] et al. with slight modifications. Sucrose and sucrase derived from Leuconostoc mesenteroides were obtained from Sigma Chemical Co. (St. Louis, MO, USA). […] The mixtures were incubated at 37 °C for 60 min and then at 100 °C for a further 10 min to stop the reaction. The glucose concentrations released from the reaction mixtures were estimated via the glucose oxidase method (glucose assay kit, Sigma Chemical Co., St. Louis, MO, USA) using a VersaMax microplate reader (Molecular Devices Corporation, Sunnyvale, CA, USA) at an absorbance wavelength of 540 nm. […] Kinetics assays were conducted using substrates of various concentrations with and without inhibitors. Maltose was used as a substrate for maltase, where the initial velocity was expressed as the rate of absorbance at 540 nm per min. Sucrose was used as a substrate for sucrase, where the initial velocity was expressed as the rate of absorbance at 540 nm per 18 min. Dixon plot analysis was used to determine the competitive inhibition constant (Ki) and uncompetitive inhibition constant (Ki'). Ki was used as the equilibrium constant for the inhibition of binding to maltase and sucrase, whereas Ki' was used as the equilibrium constant for the inhibition of binding to maltase-maltose and sucrase-sucrose complexes.

sucrase [3] = test: Sucrase inhibitory activity assay (sucrose substrate, glucose oxidase method); format: biochemical, Leuconostoc mesenteroides; settings: for IC50: L. mesenteroides sucrase, sucrose substrate, pH 7.0, 37 °C, mean ± SD; for sucrase inhibition: at a concentration of 20 µM
Experimental: Estimates of sucrase activity were obtained using the method outlined by […] et al. with slight modifications. Sucrose and sucrase derived from Leuconostoc mesenteroides were obtained from Sigma Chemical Co. (St. Louis, MO, USA). […] The mixtures were incubated at 37 °C for 60 min and then at 100 °C for a further 10 min to stop the reaction. The glucose concentrations released from the reaction mixtures were estimated via the glucose oxidase method (glucose assay kit, Sigma Chemical Co., St. Louis, MO, USA) using a VersaMax microplate reader (Molecular Devices Corporation, Sunnyvale, CA, USA) at an absorbance wavelength of 540 nm. […] All samples were assessed in terms of sucrase inhibitory activity under a range of concentrations (0-50 μM).

maltase [4] = target: T1, maltase; test: Maltase inhibitory activity assay (maltose substrate, glucose oxidase method); format: biochemical; settings: for inhibition at 10 µM: read-out: maltase inhibition
Experimental: as §1
All of the samples were assessed in terms of maltase inhibitory activity under a range of concentrations (0–30 μM). Maltase inhibitory activity was evaluated by dissolving the samples directly in phosphate buffer solution (100 mM, pH 7.0). Note that each sample was assayed in triplicate. Inhibitory activity was estimated in terms of IC50 values based on percent inhibition, as follows:percent inhibition (%) = [(Awithout sample − Awith sample)] × 100%/Awithout sample(1)

rat sucrase = target: rat sucrase; parameters: method as in PMID 28914528; settings: cited from earlier work
[5] = parameters: method as in PMID 18756586; settings: daily consumption for three years, compared to control group not consuming acarbose; cited from earlier work
rat maltase [6] = target: rat maltase; parameters: method as in PMID 28914528; settings: cited from earlier work
sucrose in rats = tested on: sucrose in rats; parameters: method as in PMID 20629879; settings: read-out: IC50 against sucrose in rats; cited from earlier work
maltase [7] = tested on: maltase; parameters: method as in PMID 19772492; settings: kinetic analysis; cited from earlier work
sucrase [8] = tested on: sucrase; parameters: method as in PMID 21765605; settings: kinetics analysis; cited from earlier work
maltase [9] = tested on: maltase; parameters: method as in PMID 32218677; settings: maltose substrate, cited from earlier work
sucrase [10] = tested on: sucrase; parameters: method as in PMID 19772492; settings: cited from earlier work
maltase [11] = target: maltase; parameters: method as in PMID 15826043; settings: isolated from Siraitia grosvenori; read-out: IC50 maltase inhibitory activity; cited from earlier work
rat maltase [12] = target: rat maltase; parameters: method as in doi:10.1016/j.foodchem.2010.03.088; settings: read-out: IC50 against rat maltase; cited from earlier work
rat sucrose = tested on: rat sucrose; parameters: method as in doi:10.1016/j.foodchem.2010.03.088; settings: read-out: IC50 against rat sucrose; cited from earlier work
sucrase [13] = tested on: sucrase; parameters: method as in PMID 15895684; settings: sucrose substrate, cited from earlier work
[14] = S. cerevisiae maltase, maltose substrate, pH 7.0, 37 °C, mean ± SD, triplicate, read-out: IC50 Maltase

T1 sequence (P53341 whole entry): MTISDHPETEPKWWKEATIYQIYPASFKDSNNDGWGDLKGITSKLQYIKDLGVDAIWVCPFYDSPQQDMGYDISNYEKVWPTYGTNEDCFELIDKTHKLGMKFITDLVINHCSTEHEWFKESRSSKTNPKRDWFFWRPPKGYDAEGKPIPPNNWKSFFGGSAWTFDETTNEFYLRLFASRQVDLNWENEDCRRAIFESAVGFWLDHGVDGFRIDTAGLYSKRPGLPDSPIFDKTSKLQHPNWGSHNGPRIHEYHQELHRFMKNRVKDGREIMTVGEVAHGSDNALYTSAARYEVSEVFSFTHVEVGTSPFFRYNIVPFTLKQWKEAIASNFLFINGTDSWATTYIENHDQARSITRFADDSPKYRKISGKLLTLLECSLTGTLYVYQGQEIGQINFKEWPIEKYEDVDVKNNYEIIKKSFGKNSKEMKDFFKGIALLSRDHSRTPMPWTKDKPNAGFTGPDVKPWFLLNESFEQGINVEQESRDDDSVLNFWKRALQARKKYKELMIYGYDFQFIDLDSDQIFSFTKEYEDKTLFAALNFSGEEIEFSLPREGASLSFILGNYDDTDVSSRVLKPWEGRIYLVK

O=C(OC1Cc2c(O)cc(O)c(C3c4c(O)cc(O)cc4OC(c4ccc(O)c(O)c4)C3O)c2OC1c1ccc(O)c(O)c1)c1cc(O)c(O)c(O)c1 (stereo not drawn) [B2-3’-O-gallate, epicatechin-(4β,8)-epicatechingallate]
Ki (maltase [1]; Dixon plot, maltose substrate, binding to maltase, read-out: Ki maltase (competitive inhibition constant)): 1.99 ± 0.02 µM | Ki’ maltase (uncompetitive inhibition constant) (maltase [1]; Dixon plot): 3.73 ± 0.08 µM | mode of inhibition toward maltase (maltase [1]; maltose substrate): mixed-type inhibition; also recorded: mixed-competitive inhibitors | mode of inhibition of α-glucosidase (α-glucosidase): mixed-competitive inhibitors | Ki (α-glucosidase): 0.3 ± 0.03 µM | Ki’ α-glucosidase (α-glucosidase): 1.42 ± 0.01 µM | Ki (sucrase [2]): 6.05 ± 0.04 µM | mode of inhibition toward sucrase (sucrase [2]): mixed-type inhibition; also recorded: mixed-competitive inhibitors | IC50 (sucrase [3]): 6.91 ± 3.41 µM | sucrase inhibition (sucrase [3]): 84.6% | IC50 (maltase [4]; [14]): 1.73 ± 1.37 µM | inhibition at 10 µM (maltase [4]): 90.7%

Oc1cc(O)c2c(c1)O[C@H](c1ccc(O)c(O)c1)[C@H](O)C2 [EC, epicatechin]
Ki’ maltase (uncompetitive inhibition constant) (maltase [1]; Dixon plot): 18.88 ± 0.22 µM | mode of inhibition toward maltase (maltase [1]; maltose substrate): mixed-type inhibition; also recorded: mixed-competitive inhibitors | Ki (maltase [1]; read-out: Ki maltase (competitive inhibition constant)): 7.02 ± 0.26 µM | Ki (sucrase [2]): 13.7 ± 0.15 µM | Ki’ sucrase (uncompetitive inhibition constant) (sucrase [2]): 21.36 ± 0.30 µM | mode of inhibition toward sucrase (sucrase [2]): mixed-type inhibition; also recorded: mixed-competitive inhibitors | IC50 (sucrase [3]): 18.9 ± 3.66 µM | sucrase inhibition (sucrase [3]): 51.4% | IC50 (maltase [4]; [14]): 6.25 ± 1.84 µM | inhibition at 10 µM (maltase [4]): 66.3%

O=C(O[C@@H]1Cc2c(O)cc(O)cc2O[C@@H]1c1ccc(O)c(O)c1)c1cc(O)c(O)c(O)c1 [ECG, epicatechin gallate]
Ki (maltase [1]): 3.14 ± 0.04 µM | Ki’ maltase (uncompetitive inhibition constant) (maltase [1]; Dixon plot): 6.38 ± 0.04 µM | mode of inhibition toward maltase (maltase [1]; maltose substrate): mixed-type inhibition; also recorded: mixed-competitive inhibitors | mode of inhibition of α-glucosidase (α-glucosidase): mixed-competitive inhibitors | Ki (α-glucosidase): 0.21 ± 0.04 µM | Ki’ α-glucosidase (α-glucosidase): 2.34 ± 0.06 µM | Ki (sucrase [2]): 8.58 ± 0.08 µM | Ki’ sucrase (uncompetitive inhibition constant) (sucrase [2]): 15.74 ± 0.32 µM | mode of inhibition toward sucrase (sucrase [2]): mixed-type inhibition; also recorded: mixed-competitive inhibitors | IC50 (sucrase [3]): 18.3 ± 3.99 µM | sucrase inhibition (sucrase [3]): 56.1% | IC50 (maltase [4]): 3.64 ± 2.99 µM | inhibition at 10 µM (maltase [4]): 87.7%

C[C@H]1O[C@H](O[C@H]2[C@H](O)[C@@H](O)[C@@H](O[C@H]3[C@H](O)[C@@H](O)C(O)O[C@@H]3CO)O[C@@H]2CO)[C@H](O)[C@@H](O)[C@@H]1N[C@H]1C=C(CO)[C@@H](O)[C@H](O)[C@H]1O (stereo partly shown) [acarbose]
IC50 (rat sucrase): 12.3 ± 0.6 µM | reduction of the risk of developing type 2 diabetes [5]: 6% | IC50 (rat maltase [6]): 0.42 ± 0.02 µM

Oc1cc(COCc2cc(O)c(O)c(Br)c2Br)c(Br)c(Br)c1O [bis (2,3-dibromo-4,5-dihydroxybenzyl)ether]
IC50 (sucrose in rats): 1000 ± 30 µM

O=C(O)/C=C/c1ccc(O)c(O)c1 [caffeic acid]
mode of inhibition of maltase (maltase [7]): mixed-inhibition manner

C[C@@H]1O[C@@H](OC[C@H]2O[C@@H](Oc3cc4c(O)cc(O)cc4[o+]c3-c3ccc(O)c(O)c3)[C@H](O)[C@@H](O)[C@@H]2O)[C@H](O)[C@H](O)[C@H]1O [cyanidin-3-rutinoside]
mode of inhibition of sucrase (sucrase [8]): mixed-type manner

O=C(O[C@@H]1Cc2c(O)cc(O)cc2O[C@@H]1c1cc(O)c(O)c(O)c1)c1cc(O)c(O)c(O)c1 [epigallocatechin gallate]
mode of inhibition of maltase (maltase [9]; Lineweaver–Burk plot): competitive inhibitor | Ki (maltase [9]; read-out: Ki maltase calculated from a Dixon plot): 5.93 ± 0.26 µM | IC50 (rat sucrase): 950 ± 86 µM | IC50 (rat maltase [6]): 14 ± 2 µM

COc1cc(/C=C/C(=O)O)ccc1O [ferulic acid]
mode of inhibition of maltase (maltase [7]): mixed-inhibition manner | mode of inhibition of sucrase (sucrase [10]): mixed-type manner

COc1ccc(/C=C/C(=O)O)cc1O [isoferulic acid]
mode of inhibition of maltase (maltase [7]): mixed-inhibition manner | mode of inhibition of sucrase (sucrase [10]): mixed-type manner

C[C@H](CC[C@@H](O[C@@H]1O[C@H](CO[C@@H]2O[C@H](CO)[C@@H](O)[C@H](O)[C@H]2O)[C@@H](O)[C@H](O)[C@H]1O)C(C)(C)O)[C@H]1CC[C@@]2(C)[C@@H]3CC=C4[C@@H](CC[C@H](O[C@@H]5O[C@H](CO)[C@@H](O)[C@H](O)[C@H]5O)C4(C)C)[C@]3(C)[C@H](O)C[C@]12C [mogroside III]
IC50 (maltase [11]): 1600 µM

C[C@H](CC[C@@H](O[C@@H]1O[C@H](CO)[C@@H](O)[C@H](O)[C@H]1O[C@@H]1O[C@H](CO)[C@@H](O)[C@H](O)[C@H]1O)C(C)(C)O)[C@H]1CC[C@@]2(C)[C@H]3CC=C4[C@@H](CC[C@H](O[C@@H]5O[C@H](CO[C@@H]6O[C@H](CO)[C@@H](O)[C@H](O)[C@H]6O)[C@@H](O)[C@H](O)[C@H]5O)C4(C)C)[C@]3(C)[C@H](O)C[C@]12C [mogroside IV]
IC50 (maltase [11]): 12000 µM

O=c1c(O)c(-c2ccc(O)c(O)c2)oc2cc(O)cc(O)c12 [quercetin, reference compound]
Ki’ maltase (uncompetitive inhibition constant) (maltase [1]; Dixon plot): 14.97 ± 0.75 µM | mode of inhibition toward maltase (maltase [1]; maltose substrate): mixed-type inhibition; also recorded: mixed-competitive inhibitors | mode of inhibition of α-glucosidase (α-glucosidase): mixed-competitive inhibitors | Ki (sucrase [2]): 14.05 ± 0.03 µM | mode of inhibition toward sucrase (sucrase [2]): mixed-type inhibition; also recorded: mixed-competitive inhibitors | IC50 (sucrase [3]): 19 ± 2.53 µM | sucrase inhibition (sucrase [3]): 51.7% | inhibition at 10 µM (maltase [4]): 56.3% | IC50 (rat maltase [12]): 4800 ± 400 µM | IC50 (rat sucrose): 3500 ± 300 µM

C[C@H](CC[C@@H](O[C@@H]1O[C@H](CO[C@@H]2O[C@H](CO)[C@@H](O)[C@H](O)[C@H]2O)[C@@H](O)[C@H](O)[C@H]1O[C@@H]1O[C@H](CO)[C@@H](O)[C@H](O)[C@H]1O)C(C)(C)O)[C@H]1CC[C@@]2(C)[C@@H]3CC=C4[C@@H](CC[C@H](O[C@@H]5O[C@H](CO)[C@@H](O)[C@H](O)[C@H]5O)C4(C)C)[C@]3(C)[C@H](O)C[C@]12C [siamenoside I]
IC50 (maltase [11]): 10000 µM

N[C@H]1C=C(CO)[C@@H](O)[C@H](O)[C@H]1O [valienamine]
mode of inhibition of sucrase (sucrase [13]; Lineweaver–Burk plot): competitive inhibitor | Ki (sucrase [13]; read-out: Ki sucrase calculated from a Dixon plot): 0.77 µM
